The assay concerns the target Heat shock 70 kDa protein 1A (Homo sapiens, UniProt V9GZ37). The assay can be described thus: Hsp70 inhibitors, SAR follow-up, biochemical, fluorescence polarization (AID 1072). In general terms: In fluorescence polarisation assays a small probe gives low polarisation when free and higher when bound to something large.

Structures are written as SMILES. pIC50: −log10 of the molar value.

Chain of Heat shock 70 kDa protein 1A (V9GZ37 whole entry): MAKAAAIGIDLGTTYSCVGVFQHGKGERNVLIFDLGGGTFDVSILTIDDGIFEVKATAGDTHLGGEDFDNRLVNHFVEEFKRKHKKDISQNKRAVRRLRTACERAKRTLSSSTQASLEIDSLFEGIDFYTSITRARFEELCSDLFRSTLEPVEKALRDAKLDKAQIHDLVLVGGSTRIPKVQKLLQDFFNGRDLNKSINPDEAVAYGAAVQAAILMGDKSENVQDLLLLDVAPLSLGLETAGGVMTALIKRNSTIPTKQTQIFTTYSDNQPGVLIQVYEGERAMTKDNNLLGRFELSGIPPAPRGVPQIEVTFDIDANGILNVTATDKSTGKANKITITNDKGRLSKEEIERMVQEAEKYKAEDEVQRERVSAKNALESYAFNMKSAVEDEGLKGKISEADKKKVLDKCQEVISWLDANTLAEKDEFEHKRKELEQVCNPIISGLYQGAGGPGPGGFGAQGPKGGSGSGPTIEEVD

What is called pIC50 is −log10 of the IC50, conventionally taken in molar units. Low values mean a large IC50, high ones a small IC50. Take `O=C1C=C2CC3(O)CCc4c(ccc(O)c4O)C3=C2CC1=O` (stereo unspecified) [3,4,6a,10-tetrakis(oxidanyl)-6,7-dihydro-5H-benzo[g]fluoren-9-one]: the pIC50 was 4.47.

Source of the values: BindingDB's records for doi:10.7270/Q2S75DRW (Burnham Center For Chemical Genomics, 2008).
